Test results reported in PMC3381515 (Immunity, 2011).

System: TCR and CD8 on F5 T cells
Assay: Micropipette adhesion frequency assay, F5 T cells vs pMHC-coated RBCs
Format: binding, mouse
Conditions: 32 NP68:H-2D^b/μm^2, BAPTA-AM 50 μM, PD98059 50 μM

**Q.** How did the “effect on two-stage kinetics / upregulated adhesion” value turn out when `CC(=O)OCOC(=O)CN(CC(=O)OCOC(C)=O)c1ccccc1OCCOc1ccccc1N(CC(=O)OCOC(C)=O)CC(=O)OCOC(C)=O` [BAPTA-AM] was run?
**A.** Its value is “two-stage kinetics were unaffected”.
